# Earlier results in patent US20130316464A1, “ANALYTE […] AND METHOD” (priority 2010, published 2013).
# Test system: erythrocytes
# Settings: whole blood
compound,measurement,value
"CC(C)c1cccc(C(C)C)c1O [propofol, 2,6-diisopropylphenol]",proportion of the propofol partitioned into / bound to blood cells (erythrocytes),30-40%
